PMC8330742, “New benzothieno[2,3-c]pyridines as non-steroidal CYP17 inhibitors: design, synthesis, anticancer screening, apoptosis induction, and in silico ADME profile studies” (Journal of Enzyme Inhibition and Medicinal Chemistry, 2021)

Experiments:
RPMI-8226 = assay: NCI-60 SRB screen; format: cell-based; conditions: Homo sapiens; RPMI-8226; single dose 10^−5 M; read-out: Growth inhibition (%)
HCC-2998 = assay: NCI-60 SRB screen; format: cell-based, human; conditions: Homo sapiens; HCC-2998; single dose 10^−5 M; read-out: Growth inhibition (%)
SF-539 = assay: NCI-60 SRB screen; format: cell-based, human; conditions: Homo sapiens; SF-539; single dose 10^−5 M; read-out: Growth inhibition (%)
SNB-19 = assay: NCI-60 SRB screen; format: cell-based; conditions: Homo sapiens; SNB-19; single dose 10^−5 M; read-out: Growth inhibition (%)
SNB-75 = assay: NCI-60 SRB screen; format: cell-based, human; conditions: Homo sapiens; SNB-75; single dose 10^−5 M; read-out: Growth inhibition (%)
U251 = assay: NCI-60 SRB screen; format: cell-based, human; conditions: Homo sapiens, U-251; U251; single dose 10^−5 M; read-out: Growth inhibition (%)
LOX IMVI = assay: NCI-60 SRB screen; format: cell-based, human; conditions: Homo sapiens, single dose 10^−5 M, read-out: Growth inhibition (%)
OVCAR-5 = assay: NCI-60 SRB screen; format: cell-based, human; conditions: Homo sapiens; OVCAR-5; single dose 10^−5 M; read-out: Growth inhibition (%)
A498 = assay: NCI-60 SRB screen; format: cell-based, human; conditions: Homo sapiens; A498; single dose 10^−5 M; read-out: Growth inhibition (%)

Structure (SMILES) | inhibition at 10 µM (RPMI-8226) [%] | inhibition at 10 µM (HCC-2998) [%] | inhibition at 10 µM (SF-539) [%] | inhibition at 10 µM (SNB-19) [%] | inhibition at 10 µM (SNB-75) [%] | inhibition at 10 µM (U251) [%] | inhibition at 10 µM (LOX IMVI) [%] | inhibition at 10 µM (OVCAR-5) [%] | inhibition at 10 µM (A498) [%] | melting point [°C]
COc1ccc(C=C2Sc3c(F)cccc3C2=O)c(OC)c1 [Compound 2a, 2-(2,4-Dimethoxybenzylidene)-7-fluoro[1]benzothiophen-3(2H)-one] | -8.46 | -12.8 | -0.64 | -2.1 | 12.6 | -7.91 | -0.02 | -9.42 | -4.03 | 195 to 197
O=C1C(=Cc2ccccc2[N+](=O)[O-])Sc2c(F)cccc21 [Compound 2c, 7-Fluoro-2-(2-nitrobenzylidene)[1]benzothiophen-3(2H)-one] | 30.6 | -11.4 | 3.65 | 14.2 | -1.55 | 32.5 | 11.1 | – | 55.1 | 170 to 172
COc1ccc(C2NC(=O)C(Cl)c3c2sc2c(F)cccc32)c(OC)c1 (stereo not shown) [Compound 4a, 4-Chloro-1-(2,4-Dimethoxyphenyl)-8-fluoro-1,2-dihydro[1]benzothieno [2,3-c]pyridine-3(4H)-one] | 11.7 | -7.97 | 3.36 | 0.33 | 22.3 | 0.4 | 4.84 | -3.64 | 14.9 | 120 to 122
COc1ccc(C2NC(=O)C(Cl)c3c2sc2c(F)cccc32)cc1 (stereo not shown) [Compound 4b, 4-Chloro-8-fluoro-1-(4-methoxyphenyl)-1,2-dihydro[1]benzothieno[2,3-c] pyridine-3(4H)-one] | 7.32 | -6.39 | 15.8 | 7.47 | 22.8 | 21.1 | 6.46 | -12.9 | 11.1 | 154 to 156
O=C1NC(c2ccccc2[N+](=O)[O-])c2sc3c(F)cccc3c2C1Cl (stereo not shown) [Compound 4c, 4-Chloro-8-fluoro-1-(2-nitrophenyl)-1,2-dihydro[1]benzothieno[2,3-c] pyridine-3(4H)-one] | 5.9 | -27.4 | 3.36 | -2.16 | 11.7 | 8.82 | 8.72 | -2.88 | -6.23 | 110 to 112
